One assay addresses T1, spFolD (Streptococcus pneumoniae serotype 4, UniProt Q97RI9).
T1 construct: His-tag (TEV-cleavable, vector pHis-TEV); made in house; host or cells: E. coli BL21 (DE3)
The assay can be described thus: spFolD cyclohydrolase (CYH) enzyme assay. It counts as biochemical, S. pneumoniae. As to the method:
(§1) (6R,S)-5,10-Methylene-5,6,7,8-tetrahydrofolic acid ((6R,S)-5,10-CH2-THF) calcium salt and (6R,S)-5,10-Methenyl-5,6,7,8-tetrahydrofolic acid ((6R,S)-5,10-CH=THF) chloride were purchased from Schircks Laboratories (Bauma, Switzerland) and used as substrates for FolD dehydrogenase and cyclohydrolase enzyme assays, respectively. Only the R-isomer, which accounts for 50% of (6R,S)-5,10-CH2-THF and (6R,S)-5,10-CH=THF, respectively, is used by the enzyme. (6R,S)-5,10-CH2-THF was dissolved in N2-spargeled basic buffer (50 mM Tris-HCl (pH 8.0), 100 mM β-mercaptoethanol) as described by Varshney et al.[25]. (6R,S)-5,10-CH=THF was dissolved in DMSO as a 100 mM stock solution.
(§2) Because FolD is a bifunctional enzyme, dehydrogenase and cyclohydrolase activities were determined for FolD enzyme kinetics, respectively. The dehydrogenase activity of FolD was assayed for its substrate 5,10-CH2-THF and cofactor NADP^+ (in the case of MTHFD2, NAD^+ was used as the cofactor) based on monitoring the formation of 5,10-CH=THF, while the cyclohydrolase activity of FolD was determined for its substrate 5,10-CH=THF by monitoring the hydrolysis of […]. The enzyme kinetics for the dehydrogenase activity of all FolDs except hsMTHFD1_DC were determined at 30 °C in 50 mM Tris-HCl (pH 7.5), 30 mM β-mercaptoethanol. The hsMTHFD1_DC dehydrogenase activity was measured in 25 mM MOPS (pH 7.3), 30 mM β-mercaptoethanol at 30 °C. […] To monitor the formation of 5,10-CH=THF, the absorbance of the reaction mixture was monitored at 350 nm in micro UV cuvettes (BRAND, Essex, Connecticut, USA). The concentration of 5,10-CH=THF produced in the reaction was determined using an extinction co-efficient of 0.0249 μM^−1 cm^−1. […] The consumption of 5,10-CH=THF was measured by recording the absorbance of the reactions at 355 nm using the TECAN Infinite 200 PRO equipped with a monochromator. […] The inhibition constants (K i) of carolacton on FolD were determined by measuring the apparent K m when adding certain amounts of carolacton to the enzyme reactions. […]

Assay [1] addresses T2, ecFolD (Escherichia coli, UniProt P24186).
T2 construct: His-tag (TEV-cleavable, vector pHis-TEV); made in house; host or cells: E. coli BL21 (DE3)
The assay can be described thus: ecFolD cyclohydrolase (CYH) enzyme assay. In kind it is biochemical, E. coli. As to the method: as §1, §2

For the next assay, the target named is T3, ecFolD K54N (Escherichia coli, UniProt P24186, K54N).
T3 construct: His-tag (TEV-cleavable, vector pHis-TEV); made in house; host or cells: E. coli BL21 (DE3)
In words: SPR binding to ecFolD K54N. Also noted: species or system E. coli. As to conditions: K54N mutant. As for the experimental part:
(§3) All surface plasmon resonance (SPR) experiments described in this study were performed on a Biacore X100 system. Different FolDs with or without His-tag were coupled on CM5 sensor chips (GE Healthcare) by the amine coupling method using a kit from GE Healthcare Life Sciences (Freiburg, Germany). A pH scouting process was performed before protein immobilization to test the most appropriate buffer and the protein concentration for protein coupling. Finally, 20 μg/mL of ecFolD in 10 mM maleate buffer (pH 6.8), 30 μg/mL of ecFolD Q98H in 10 mM maleate buffer (pH 6.3), 40 μg/mL of ecFolD K54N in 10 mM maleate buffer (pH 5.8), 20 μg/mL of spFolD in 10 mM maleate buffer (pH 6.0) and 15 μg/mL of MTHFD2 (His-tag cleaved) in 10 mM maleate buffer (pH 6.8) were used for coupling. In the protein immobilization procedure, the contact time was calculated based on the pH scouting results to achieve ~3000–5000 relative resonance units (RU). The buffer used in the SPR assays was 1× HBS-P buffer (10 mM HEPES pH 7.4, 150 mM NaCl, 0.05% Tween 20). The 1 mM stock solution of carolacton was prepared in 1× HBS-P buffer and diluted to different concentration ranges by two-fold serial dilution. In the SPR assay, the association time was 180 s and the dissociation time was 600 s. Data analysis was performed using the Biacore evaluation software. […]
A general note: In SPR one partner is held on a chip, and binding of the other changes the refractive index at the surface.

The target in assay [2] is T2, ecFolD. In words: SPR binding to ecFolD. Also on record: species or system E. coli. As to the method: as §3

Values joined by “and” are separate entries in the source; they are usually repeats but may differ in a detail not shown here. Equal values may be shown once.

A word on the IC50: it is the point on the concentration scale where inhibition reaches its midpoint. As usually defined, the IC80 is the concentration needed for an effect of 80%. Usually Kd stands for the free concentration of one partner at which half of the binding sites on the other are occupied at equilibrium, for simple one-to-one binding. A lower Kd goes with tighter binding. For orientation: koff means a measure of how fast the partners let go of each other.

T1 sequence (Q97RI9 whole entry): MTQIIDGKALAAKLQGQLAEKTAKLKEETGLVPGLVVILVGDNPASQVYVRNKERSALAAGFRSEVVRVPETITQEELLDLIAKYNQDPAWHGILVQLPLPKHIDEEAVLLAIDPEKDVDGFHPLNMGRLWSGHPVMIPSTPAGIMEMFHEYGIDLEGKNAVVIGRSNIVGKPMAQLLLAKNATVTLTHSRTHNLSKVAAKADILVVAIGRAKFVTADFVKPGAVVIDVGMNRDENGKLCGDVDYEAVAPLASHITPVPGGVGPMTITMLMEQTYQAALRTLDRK

As for `CO[C@H](CC(=O)O)[C@@H](C)C(=O)[C@H](C)/C=C(\C)[C@H]1OC(=O)[C@H](O)[C@H](O)/C=C/[C@H](C)CCC[C@@H]1C` [carolacton], the half-maximal inhibitory concentration (IC50) turned out to be 38.1 nM on spFolD (5 nM enzyme, read-out: IC50, carolacton inhibition on CYH activity) and 49.8 nM against ecFolD [1]. Besides, the IC80 on spFolD (5 nM enzyme, read-out: IC80, carolacton inhibition on CYH activity) turned out to be 101 nM; at ecFolD [1] (read-out: IC80, carolacton inhibition on CYH activity), 180 nM. In addition, the Ki at spFolD (vs 5,10-CH=THF, read-out: Ki (5,10-CH=THF), carolacton inhibition on CYH activity) is 38.1 nM; on ecFolD [1] (Ki (5,10-CH=THF), carolacton inhibition on CYH activity, competitive vs substrate 5,10-CH=THF, from apparent KM) it was 32 nM and 31.6 nM. Further, the “binding by SPR” value at ecFolD K54N is listed as “does not bind”. The affinity at ecFolD [2], expressed as Kd, was 10 nM. On ecFolD [2], this compound came in with a koff of 0.01 s⁻¹.

(Values after PMC5688156, “The natural product carolacton inhibits folate-dependent C1 metabolism by targeting FolD/MTHFD” (Nature Communications, 2017).)
